Read-outs that look alike come from different tables or passages of the source.
Experiments:
HCV NS3-NS4A protease = target: T1, HCV NS3-NS4A protease (Hepatitis C virus genotype 1a, UniProt P27958); test: HCV enzyme assay (HPLC microbore separation of 5AB substrate and products); assay type: biochemical
T1 construct: The buffer, KK4A, DTT, and tNS3 were combined
Protocol: HCV Enzyme Assay Protocol
HPLC Microbore Method for Separation of 5AB Substrate and Products
• NH2-Glu-Asp-Val-Val-(alpha)Abu-Cys-Ser-Met-Ser-Tyr-COOH
A stock solution of 20 mM 5AB (or concentration of your choice) was made in DMSO w/0.2M DTT. This was stored in aliquots at −20 C.
Buffer: 50 mM HEPES, pH 7.8; 20% glycerol; 100 mM NaCl
Total assay volume was 100 μL
The buffer, KK4A, DTT, and tNS3 were combined; distributed 78 μL each into wells of 96 well plate. This was incubated at 30 C for ˜5-10 min.
2.5 μL of appropriate concentration of test compound was dissolved in DMSO (DMSO only for control) and added to each well. This was incubated at room temperature for 15 min.
Incubated for 20 min at 30 C.
Terminated reaction by addition of 25 μL of 10% TFA
Transferred 120 μL aliquots to HPLC vials
Separated SMSY product from substrate and KK4A by the following method:
Microbore Separation Method:
Instrumentation: Agilent 1100
• Degasser G1322A • Binary pump G1312A • Autosampler G1313A • Column thermostated chamber G1316A • Diode array detector G1315A Column: • Phenomenex Jupiter; 5 micron C18; 300 angstroms; 150×2 mm; P/O 00F-4053-B0 • Column thermostat: 40 C • Injection volume: 100 μL • Solvent A=HPLC grade water+0.1% TFA • Solvent B=HPLC grade acetonitrile+0.1% TFA
• Stop time: 17 min • Post-run time: 10 min.

[1] = tested on: Cells containing hepatitis C virus (HCV) replicon; test: HCV replicon cell assay; assay type: cell-based
Protocol: HCV Replicon Cell Assay Protocol:
Cells containing hepatitis C virus (HCV) replicon were maintained in DMEM containing 10% fetal bovine serum (FBS), 0.25 mg per ml of G418, with appropriate supplements (media A).
On day 1, replicon cell monolayer was treated with a trypsin: EDTA mixture, removed, and then media A was diluted into a final concentration of 100,000 cells per ml wit. 10,000 cells in 100 ul were plated into each well of a 96-well tissue culture plate, and cultured overnight in a tissue culture incubator at 37° C.
On day 2, compounds (in 100% DMSO) were serially diluted into DMEM containing 2% FBS, 0.5% DMSO, with appropriate supplements (media B). The final concentration of DMSO was maintained at 0.5% throughout the dilution series.
Media on the replicon cell monolayer was removed, and then media B containing various concentrations of compounds was added. Media B without any compound was added to other wells as no compound controls.
Cells were incubated with compound or 0.5% DMSO in media B for 48 hours in a tissue culture incubator at 37° C. At the end of the 48-hour incubation, the media was removed, and the replicon cell monolayer was washed once with PBS and stored at −80° C. prior to RNA extraction.
Culture plates with treated replicon cell monolayers were thawed, and a fixed amount of another RNA virus, such as Bovine Viral Diarrhea Virus (BVDV) was added to cells in each well. RNA extraction reagents (such as reagents from RNeasy kits) were added to the cells immediately to avoid degradation of RNA. Total RNA was extracted according the instruction of manufacturer with modification to improve extraction efficiency and consistency. Finally, total cellular RNA, including HCV replicon RNA, was eluted and stored at −80° C. until further processing.
A Taqman real-time RT-PCR quantification assay was set up with two sets of specific primers and probe. One was for HCV and the other was for BVDV. Total RNA extractants from treated HCV replicon cells was added to the PCR reactions for quantification of both HCV and BVDV RNA in the same PCR well. Experimental failure was flagged and rejected based on the level of BVDV RNA in each well. The level of HCV RNA in each well was calculated according to a standard curve run in the same PCR plate. The percentage of inhibition or decrease of HCV RNA level due to compound treatment was calculated using the DMSO or no compound control as 0% of inhibition. The IC50 (concentration at which 50% inhibition of HCV RNA level is observed) was calculated from the titration curve of any given compound.

[2] = 50% inhibition of HCV RNA level, 48-hour incubation, Taqman real-time RT-PCR, read-out: IC50

T1 sequence (P27958 1027-1208): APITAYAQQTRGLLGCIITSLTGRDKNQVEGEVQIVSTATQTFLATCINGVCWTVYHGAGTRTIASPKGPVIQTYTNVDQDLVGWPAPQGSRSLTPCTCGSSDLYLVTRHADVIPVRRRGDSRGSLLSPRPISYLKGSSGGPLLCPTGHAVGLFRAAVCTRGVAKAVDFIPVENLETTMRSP

Row | Compound | Ki (HCV NS3-NS4A protease) | IC50 [1, 2] | Ki (HCV NS3-NS4A protease; 25 nM tNS3, 25 μM KK4A, 25 μM 5AB substrate, 20 min at 30 C, read-out: Ki) | IC50 ([1]; 48 h)
1 | CCC[C@H](NC(=O)[C@@H]1C[C@@H]2CCCC[C@@H]2N1C(=O)[C@@H](NC(=O)[C@@H](NC(=O)C(=O)NCC1CCCCC1)C1CCCCC1)C(C)(C)C)C(=O)C(=O)NC1CC1 [Compound 3] | 0.1 to 0.25 µM | 0.25 to 1 µM |  | 
2 | CCC[C@H](NC(=O)[C@@H]1C[C@@H]2CCCC[C@@H]2N1C(=O)[C@@H](NC(=O)[C@@H](NC(=O)C(=O)NC(C)C)C1CCCCC1)C(C)(C)C)C(=O)C(=O)NC1CC1 [Compound 5] | 0.1 to 0.25 µM | 0.25 to 1 µM |  | 
3 | CCC[C@H](NC(=O)[C@@H]1C[C@@H](Oc2ccc(Cl)cn2)CN1C(=O)[C@@H](NC(=O)[C@@H](NC(=O)C(=O)NCC(C)C)C1CCCCC1)C(C)(C)C)C(=O)C(=O)NC1CC1 [Compound 12] | 0.1 to 0.25 µM | < 0.1 µM |  | 
4 | CCC[C@H](NC(=O)[C@@H]1C[C@@H]2CCCC[C@@H]2N1C(=O)[C@@H](NC(=O)[C@@H](NC(=O)C(=O)NC1CCCC1)C1CCCCC1)C(C)(C)C)C(=O)C(=O)NC1CC1 [Compound 9] | 0.25 to 1 µM | 0.25 to 1 µM |  | 
5 | CCC[C@H](NC(=O)[C@@H]1C[C@@H]2CCCC[C@@H]2N1C(=O)[C@@H](NC(=O)[C@@H](NC(=O)C(=O)NCC(C)C)C1CCCCC1)C(C)(C)C)C(=O)C(=O)NC1CC1 [Compound 6] | 0.1 to 0.25 µM | 0.25 to 1 µM |  | 
6 | CCC[C@H](NC(=O)[C@@H]1C[C@@H]2CCCC[C@@H]2N1C(=O)[C@@H](NC(=O)[C@@H](NC(=O)C(=O)NC1CC1)C1CCCCC1)C(C)(C)C)C(=O)C(=O)NC1CC1 [Compound 4] | 0.1 to 0.25 µM | 0.25 to 1 µM |  | 
7 | CCC[C@H](NC(=O)[C@@H]1CC2CCCCC2N1C(=O)[C@@H](NC(=O)[C@@H](NC(=O)C(=O)Nc1ccccc1)C1CCCCC1)C(C)(C)C)C(=O)C(=O)NC1CC1 (stereo partly drawn) [Compound 1] |  |  | 0.1 to 0.25 µM | 0.25 to 1 µM
8 | CCC[C@H](NC(=O)[C@@H]1C[C@@H]2CCCC[C@@H]2N1C(=O)[C@@H](NC(=O)[C@@H](NC(=O)C(=O)NCc1ccccc1)C1CCCCC1)C(C)(C)C)C(=O)C(=O)NC1CC1 [Compound 2] | 0.1 to 0.25 µM | 0.25 to 1 µM |  | 
9 | CCC[C@H](NC(=O)C1C[C@@H](Oc2ccc(Cl)cn2)CN1C(=O)[C@@H](NC(=O)[C@@H](NC(=O)C(=O)NC1CC1)C1CCCCC1)C(C)(C)C)C(=O)C(=O)NC1CC1 (stereo partly drawn) [Compound 10] | 0.1 to 0.25 µM | < 0.1 µM |  | 
10 | CCC[C@H](NC(=O)[C@@H]1C[C@@H](Oc2ccc(Cl)cn2)CN1C(=O)[C@@H](NC(=O)[C@@H](NC(=O)C(=O)NCc1ccccc1)C1CCCCC1)C(C)(C)C)C(=O)C(=O)NC1CC1 [Compound 11] | 0.1 to 0.25 µM | < 0.1 µM |  | 
11 | CCC[C@H](NC(=O)[C@@H]1C[C@@H]2CCCC[C@@H]2N1C(=O)[C@@H](NC(=O)[C@@H](NC(=O)C(=O)NC1CCCCC1)C1CCCCC1)C(C)(C)C)C(=O)C(=O)NC1CC1 [Compound 8] | 0.1 to 0.25 µM | 0.25 to 1 µM |  | 
12 | CCC[C@H](NC(=O)[C@@H]1C[C@@H]2CCCC[C@@H]2N1C(=O)[C@@H](NC(=O)[C@@H](NC(=O)C(=O)Nc1cc(C)on1)C1CCCCC1)C(C)(C)C)C(=O)C(=O)NC1CC1 [Compound 7] | 0.1 to 0.25 µM | 0.25 to 1 µM |  | 

— patent publication US8426359B2, “Inhibitors of serine proteases, particularly HCV NS3-NS4A protease” (Vertex Pharmaceuticals Incorporated, priority 2003, dated 2013)
